# According to PubChem BioAssay AID1963840 (Molecular Pharmacology Branch, DTP, NCI, 2024):
# Several values for one entry are separate records, joined by “and”; a condition that tells them apart may be missing. Equal values may be shown once.
# System: 695427-040-R-J1-PDC complex spheroid viability
# Experiment: Anticancer human tumor 695427-040-R-J1-PDC patient-derived colon adenocarcinoma cell line growth inhibition [POLQ]
# Conditions: for viability, T/C: stronger effect = lower value
# Method: Multicellular complex tumor spheroid response to Polymerase (POL) inhibitors (novobiocin, ART-558, RP6685) in combination with a variety of drugs and investigational agents in selected tumor cell lines
# The POL inhibitors (novobiocin, ART-558, and RP6685) were evaluated both individually and in combination with standard of care and investigational anticancer small molecules within a complex spheroid model of solid tumors. . Complex spheroids include a stromal component modeled by human endothelial cells (HUVEC) and fibroblasts modeled by human mesenchymal stem cells (MSCs). The concentration ranges selected for each drug and investigational agent were based upon clinically achievable concentrations if the clinical Cmax of the agent was known.
# Compounds. The drugs and investigational agents: novobiocin (NSC847541), ART-558 (NSC835418), RP-6685 (NSC848927), peposertib (NSC802822), ceralasertib (NSC780249), elimusertib (NSC800525), camonsertib (NSC841442), AZD-1390 (NSC803789), olaparib (NSC753686), talazoparib (NSC767125), rucaparib (NSC756644), sotorasib (NSC818433), MRTX-1133 (NSC836407), SN-38 (NSC673596), topotecan (NSC609699), epotoside (NSC141540), doxorubicin (NSC123127), gemcitabine (NSC613327), 5-fluorouracil (NSC19893), paclitaxel (NSC125973), vemurafenib (NSC761431), MSA-2 (NSC828583), SN-011 (NSC837082), adavosertib (NSC754352), prexasertib (NSC758257), carboplatin (NSC241240) and oxaliplatin (NSC266046), were obtained from the National Cancer Institute (NCI) Developmental Therapeutics Program Chemical Repository (21). The FDA-approved anticancer drug set is available from the Developmental Therapeutics Program at https://dtp.cancer.gov/organization/dscb/obtaining/. […] The stock solutions were prepared in dimethyl sulfoxide (DMSO, Sigma-Aldrich, St. Louis, MO, cat. D2650), except for the platinum compounds which were prepared in saline (Quality Biological, Gaithersburg, MD, cat. 114-055-101), at 800-fold the tested concentration and stored at -70 degrees C prior to their use. All drugs and investigational agents were tested over a range starting from a high concentration at or near the clinical Cmax and decreasing in half-log increments. If the clinical Cmax for an agent had not been determined, the highest concentration tested was 10 microM, except for SN-38, which was tested at a high concentration of 1 microM.
# Cell Culture. All cells were maintained in an incubator at 37 degrees C and 5% CO2 with 95% humidity. The PDC lines were cultured according to standard operating procedures established by the NCI PDMR (https://pdmr.cancer.gov). Table 3 of the manuscript, lists the cell lines along with the number of the three cell types plated to form the mct-spheroids and media for tumor cell growth. After thawing, all PDC lines, except 997537-175-T-J1-PDC and 415267-285-R-J2-PDC, were cultured in Matrigel-coated flasks prepared with a working solution of 1X Ham's F-12 nutrient mix, without supplementation (Thermo Fisher Scientific, cat. 11765054), 100 U/mL penicillin-streptomycin (Thermo Fisher Scientific, cat. 15140122), and 2.5% Matrigel (Corning Inc., Corning, NY, cat. 354248) for the first three passages. The two PDC lines 997537-175-T-J1-PDC and 415267-285-R-J2-PDC were cultured on uncoated flasks. The 857933-349-R-J2-PDC line was cultured in 6C/Colon 1B media containing advanced DMEM/F-12 (Thermo Fisher Scientific, cat. 12634028), 10 mM HEPES (Thermo Fisher Scientific, cat. 15630080), 1X GlutaMAX supplement (Thermo Fisher Scientific, cat. 35050061), 0.1 mg/mL primocin (InvivoGen, San Diego, CA, cat. ant-pm-2), 10% defined fetal bovine serum, heat inactivated (HyClone Laboratories Inc., Logan, UT, cat. SH30070.03HI), 50% L-WRN conditioned media (ATCC, cat. CRL-3276), 1.25 mM N-Acetyl-L-cysteine (Sigma-Aldrich, cat. A9165), 10 mM nicotinamide (Sigma-Aldrich, cat. N0636), 1X B-27 supplement (Thermo Fisher Scientific, cat. 17504044), 1X N-2 supplement (Thermo Fisher Scientific, cat. […]
# [1] = curve of first compound, second compound 0.0316 µM
# [2] = curve of first compound, second compound 0.1 µM
# [3] = curve of first compound, second compound 0.316 µM
# [4] = curve of first compound, second compound 1 µM
# [5] = curve of first compound, second compound 3.16 µM
# [6] = curve of first compound, second compound 10 µM
# [7] = second compound 0.0316 µM, first compound 0.0316 µM
# [8] = second compound 0.0316 µM, first compound 0.1 µM
# [9] = second compound 0.0316 µM, first compound 0.316 µM
# [10] = second compound 0.0316 µM, first compound 1 µM
# [11] = second compound 0.0316 µM, first compound 3.16 µM
# [12] = second compound 0.0316 µM, first compound 10 µM
# [13] = second compound 0.1 µM, first compound 0.0316 µM
# [14] = second compound 0.1 µM, first compound 0.1 µM
# [15] = second compound 0.1 µM, first compound 0.316 µM
# [16] = second compound 0.1 µM, first compound 1 µM
# [17] = second compound 0.1 µM, first compound 3.16 µM
# [18] = second compound 0.1 µM, first compound 10 µM
# [19] = second compound 0.316 µM, first compound 0.0316 µM
# [20] = second compound 0.316 µM, first compound 0.1 µM
# [21] = second compound 0.316 µM, first compound 0.316 µM
# [22] = second compound 0.316 µM, first compound 1 µM
# [23] = second compound 0.316 µM, first compound 3.16 µM
# [24] = second compound 0.316 µM, first compound 10 µM
# [25] = second compound 1 µM, first compound 0.0316 µM
# [26] = second compound 1 µM, first compound 0.1 µM
# [27] = second compound 1 µM, first compound 0.316 µM
# [28] = second compound 1 µM, first compound 1 µM
# [29] = second compound 1 µM, first compound 3.16 µM
# [30] = second compound 1 µM, first compound 10 µM
# [31] = second compound 3.16 µM, first compound 0.0316 µM
# [32] = second compound 3.16 µM, first compound 0.1 µM
# [33] = second compound 3.16 µM, first compound 0.316 µM
# [34] = second compound 3.16 µM, first compound 1 µM
# [35] = second compound 3.16 µM, first compound 3.16 µM
# [36] = second compound 3.16 µM, first compound 10 µM
# [37] = second compound 10 µM, first compound 0.0316 µM
# [38] = second compound 10 µM, first compound 0.1 µM
# [39] = second compound 10 µM, first compound 0.316 µM
# [40] = second compound 10 µM, first compound 1 µM
# [41] = second compound 10 µM, first compound 3.16 µM
# [42] = second compound 10 µM, first compound 10 µM
# 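Further: spheroids exposed to compounds for seven days.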
# 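Wherever viability, T/C is given: 100% = DMSO vehicle control viability.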
compound,measurement,setting,value
CC1COCCN1c1cc(C2(O)CC3CCC(C2)O3)c2cnn(-c3ccn[nH]3)c2n1 (stereo unspecified) + COC1C(OC(N)=O)C(O)C(Oc2ccc3c(O)c(NC(=O)c4ccc(O)c(CC=C(C)C)c4)c(=O)oc3c2C)OC1(C)C,IC50,[1],3.94 µM
same,IC50,[2],4.71 µM
same,IC50,[3],5.84 µM
same,IC50,[4],4.12 µM
same,IC50,[5],4.5 µM
same,IC50,[6],4.12 µM
same,"viability, T/C",[7],105%
same,"viability, T/C",[8],86.8%
same,"viability, T/C",[9],75.3%
same,"viability, T/C",[10],64.9%
same,"viability, T/C",[11],50.9%
same,"viability, T/C",[12],41.9%
same,"viability, T/C",[13],116%
same,"viability, T/C",[14],88.6%
same,"viability, T/C",[15],79.1%
same,"viability, T/C",[16],61.5%
same,"viability, T/C",[17],52.6%
same,"viability, T/C",[18],44.9%
same,"viability, T/C",[19],99.9%
same,"viability, T/C",[20],84.7%
same,"viability, T/C",[21],83.7%
same,"viability, T/C",[22],71.2%
same,"viability, T/C",[23],54.3%
same,"viability, T/C",[24],44.6%
same,"viability, T/C",[25],97.9%
same,"viability, T/C",[26],91%
same,"viability, T/C",[27],75.9%
same,"viability, T/C",[28],64%
same,"viability, T/C",[29],51%
same,"viability, T/C",[30],45%
same,"viability, T/C",[31],102%
same,"viability, T/C",[32],91.2%
same,"viability, T/C",[33],80%
same,"viability, T/C",[34],62.6%
same,"viability, T/C",[35],52.4%
same,"viability, T/C",[36],45.3%
same,"viability, T/C",[37],129%
same,"viability, T/C",[38],91.8%
same,"viability, T/C",[39],77.4%
same,"viability, T/C",[40],63.9%
same,"viability, T/C",[41],50.3%
same,"viability, T/C",[42],44.6%
Cn1ncnc1[C@H]1c2n[nH]c(=O)c3cc(F)cc(c23)N[C@@H]1c1ccc(F)cc1,"viability, T/C",compound 0.000316 µM,105% and 96.4% and 102%
same,"viability, T/C",compound 0.001 µM,97.7% and 91% and 93.6%
same,"viability, T/C",compound 0.00316 µM,109% and 102% and 99.2%
same,"viability, T/C",compound 0.01 µM,101% and 109% and 104%
same,"viability, T/C",compound 0.0316 µM,106% and 113% and 101%
same,"viability, T/C",compound 0.1 µM,89.5% and 97.1% and 94.2%
same,IC50,curve of compound,> 0.1 µM
CC1COCCN1c1cc(C2(O)CC3CCC(C2)O3)c2cnn(-c3ccn[nH]3)c2n1 (stereo unspecified) + Cc1cccc(N(C)C(=O)C2C(O)CCN2c2nc(C)cc(C(F)(F)F)c2C#N)c1,IC50,[1],6.2 µM
same,IC50,[2],7.33 µM
same,IC50,[3],6.13 µM
same,IC50,[4],6.54 µM
same,IC50,[5],4.63 µM
same,IC50,[6],2.82 µM
same,"viability, T/C",[7],102%
same,"viability, T/C",[8],84.5%
same,"viability, T/C",[9],76.9%
same,"viability, T/C",[10],66%
same,"viability, T/C",[11],52.5%
same,"viability, T/C",[12],47.3%
same,"viability, T/C",[13],102%
same,"viability, T/C",[14],91.3%
same,"viability, T/C",[15],85%
same,"viability, T/C",[16],70.8%
same,"viability, T/C",[17],55.9%
same,"viability, T/C",[18],47.9%
same,"viability, T/C",[19],109%
same,"viability, T/C",[20],88.1%
same,"viability, T/C",[21],80.6%
same,"viability, T/C",[22],67.1%
same,"viability, T/C",[23],58.4%
same,"viability, T/C",[24],44%
same,"viability, T/C",[25],100%
same,"viability, T/C",[26],91.4%
same,"viability, T/C",[27],82.6%
same,"viability, T/C",[28],66.6%
same,"viability, T/C",[29],56.8%
same,"viability, T/C",[30],46.3%
same,"viability, T/C",[31],96%
same,"viability, T/C",[32],92.6%
same,"viability, T/C",[33],73.8%
same,"viability, T/C",[34],65.6%
same,"viability, T/C",[35],53.8%
same,"viability, T/C",[36],43.5%
same,"viability, T/C",[37],93.3%
same,"viability, T/C",[38],88.6%
same,"viability, T/C",[39],70.3%
same,"viability, T/C",[40],56.1%
same,"viability, T/C",[41],51.5%
same,"viability, T/C",[42],45.6%
